Row | Compound | logP
1 | CCOC(=O)C=Cc1ccc([N+](=O)[O-])o1 | 2.1
2 | CCCCOC(=O)C=Cc1ccc([N+](=O)[O-])o1 | 2.83
3 | COC(=O)C(=Cc1ccc(I)o1)[N+](=O)[O-] | 3
4 | O=[N+]([O-])c1ccc(C=CS(=O)(=O)c2ccccc2)o1 | 1.88
5 | N#CC=Cc1ccc([N+](=O)[O-])o1 | 1.05
6 | CC(C)OC(=O)C=Cc1ccc([N+](=O)[O-])o1 | 2.64
7 | CCOC(=O)C(=Cc1ccc([N+](=O)[O-])o1)C(=O)OCC | 2.5
8 | CCCOC(=O)C=Cc1ccc([N+](=O)[O-])o1 | 2.67
9 | COC(=O)C(=Cc1ccc(Br)o1)[N+](=O)[O-] | 2.74
10 | O=C(O)C=Cc1ccc([N+](=O)[O-])o1 | 0.68
11 | CC(C)CNC(=O)C=Cc1ccc([N+](=O)[O-])o1 | 2.23
12 | CC(C)(C)CNC(=O)C=Cc1ccc([N+](=O)[O-])o1 | 2.61
13 | CC(C)COC(=O)C=Cc1ccc([N+](=O)[O-])o1 | 3.14
14 | COC(=O)C=Cc1ccc([N+](=O)[O-])o1 | 1.65
15 | COC(=O)C(=Cc1ccc([N+](=O)[O-])o1)[N+](=O)[O-] | 1.6
16 | COC(=O)C(=Cc1ccco1)[N+](=O)[O-] | 1.88

Row | Compound | logP
17 | O=[N+]([O-])C=Cc1ccc([N+](=O)[O-])o1 | 1.3
18 | CNC(=O)C=Cc1ccc([N+](=O)[O-])o1 | 0.98
19 | O=[N+]([O-])c1ccc(C=CBr)o1 | 2.45
20 | CC(C)(C)NC(=O)C=Cc1ccc([N+](=O)[O-])o1 | 2.33
21 | CN(C)C(=O)C=Cc1ccc([N+](=O)[O-])o1 | 0.82
22 | CCCCNC(=O)C=Cc1ccc([N+](=O)[O-])o1 | 2.36
23 | COC(=O)C(=Cc1ccc(C(=O)OC)o1)[N+](=O)[O-] | 1.87
24 | CCC(C)NC(=O)C=Cc1ccc([N+](=O)[O-])o1 (stereo unspecified) | 2.28
25 | CCNC(=O)C=Cc1ccc([N+](=O)[O-])o1 | 1.39
26 | COC(=O)C(=Cc1ccc(C)o1)[N+](=O)[O-] | 2.44
27 | CC(C)(C)OC(=O)C=Cc1ccc([N+](=O)[O-])o1 | 3.06
28 | CCC(C)OC(=O)C=Cc1ccc([N+](=O)[O-])o1 (stereo unspecified) | 3.09
29 | C=Cc1ccc([N+](=O)[O-])o1 | 1.61
30 | CCCNC(=O)C=Cc1ccc([N+](=O)[O-])o1 | 1.86
31 | CCCCCOC(=O)C=Cc1ccc([N+](=O)[O-])o1 | 3.4

From the OPERA property sets (Mansouri et al. 2018)
